This is an account of results in patent publication US20220362153A1, “COMPOSITIONS AND METHODS FOR PULMONARY SURFACTANT-BIOMIMETIC NANOPARTICLES” (priority 2019, published 2022).

Series [1] has as its system gap junctions between AMs and AECs. Description: Gap junction blockade in vivo. Also on record: species or system mice. Particulars: for effect on PS-GAMP adjuvanticity (IgG2c): i.p. prior to and during immunization.
For series [2] the following is noted: mouse, in vivo.
Series [3] deals with immune mediators (Ifnb1, Gmcsf, Tnf, Ccl2, Ccl3, Ccl5, Cxcl10). The settings on record: mouse, in vivo.
Series [4] has as its system SH13 H7N9 virus. Also on record: species or system mice. Particulars: mouse, in vivo.
Series [5] has as its system CA09 H1N1 vaccine. Format: in vivo, C57BL/6 mice. Particulars: 20 μg, 2 weeks.
Series [6] relates to CA09 H1N1 virus.
For series [7], the system named is GZ89 H3N2 virus. Also on record: species or system mice. The settings on record: mouse, in vivo.
Where [8] appears, read: i.p. inhibitor, i.n. SRB-nano4, 12 h.

Consider `Cc1ccc(Cl)c(Nc2ccccc2C(=O)O)c1Cl` [meclofenamate], for which the “effect on PS-GAMP adjuvanticity (IgG2c)” value in series [1] was “blunted substantially”.
cholera toxin [CT]: the “histology of lungs, nasal tissue, and brains” value in series [2] is listed as “massive inflammatory cell infiltrates in the lung”. Also, the “cytokine production in the brain” value in series [3] is given as “measurable cytokine mRNA expression in the brains of some mice”.
As to `CC(=O)c1ccc2c(c1)[C@H](NC(=O)c1ccc(F)c(Cl)c1)[C@H](O)C(C)(C)O2` [tonabersat], the “effect on PS-GAMP adjuvanticity (IgG2c)” value in series [1] is “blunted substantially”.
Turning to `CC1(C)[C@@H](OC(=O)CCC(=O)O)CC[C@]2(C)[C@H]3C(=O)C=C4[C@@H]5C[C@@](C)(C(=O)O)CC[C@]5(C)CC[C@@]4(C)[C@]3(C)CC[C@@H]12` [CBX, carbenoxolone], in series [1] (setting [8]), the “SRB uptake by AMs” value is “did not affect SRB uptake by AMs” and the “entry of SRB into AECs” value was “blocked”. Moreover, the “effect on PS-GAMP adjuvanticity (IgG2c)” value in series [1] is listed as “blunted substantially”. Moreover, in series [1] (lungs receiving PS-GAMP, 12 h), the “Ifnb1 transcription in AMs” value is given as “increasing Ifnb1 transcription in AMs”; the “transcription of Ifnb1 and Gmcsf in AECs” value is listed as “greatly diminished”. Moreover, in series [1] (vaccine + PS-GAMP, lung, 24 h), the “reduction of recruitment of CD11b+ DCs” value is recorded as 50%.
Consider poly IC, for which the “heterosubtypic protection from SH13 H7N9 challenge” value in series [4] is “failed to provoke significant heterosubtypic protection”. Further, in series [5], the “lower efficacy in augmenting BALF IgA (vs PS-GAMP)” value came to 30 fold, the “lower efficacy in augmenting HAI titers (vs PS-GAMP)” value is given as “fivefold” and the “lower efficacy in augmenting serum IgG (vs PS-GAMP)” value was found to be 100 fold. In series [6] (mouse, in vivo), the “body weight loss after 10×LD50 CA09 H1N1 challenge” value is on record as “severe body weight loss” and the “protection against 10×LD50 CA09 H1N1 viral challenge” value stood at 33%.
Take `CCCCCCCCc1ccc(CCC(N)(CO)CO)cc1` [FTY720]: the “effect on cross-protection elicited by vaccine/PS-GAMP” value in series [7] is “not compromised”.
For the compound `CCOC(=O)C1=C[C@@H](OC(CC)CC)[C@H](NC(C)=O)[C@@H](N)C1` [oseltamivir], the “control of CA09 H1N1 viral infection” value in series [6] (unimmunized mice, 20 mg/kg/day) is given as “effectively control CA09H1N1”.
